Entries after “also recorded” stand apart in the source; their conditions may differ.
Columns and labels:
monoarthritic rats = assay: Paw pressure test (vocalization threshold) in monoarthritic rats (intraarticular FCA); assay type: in vivo, rat; conditions: for antihyperalgesic effect in model of monoarthritis (overall): i.p. 0.1, 1 and 10 mg/kg
Method: Experimentation was done blindly using the block method with randomization. Unilateral monoarthritits was induced by an intraarticular injection of FCA (0.05 ml) into the tibio tarsial cavity of the right hindpaw of the rat under volatile anaesthetic (5% isofluorane). Fourteen days later, drugs were intraperitoneally given as a single administration. Pain reaction thresholds (vocalization or struggle) were measured using the paw pressure test before induction of monoarthritis, just before drug injections and 15 min, 30 min, 45 min, 1 h, 1 h 30, 2 h and 3 h after drug injections. Pressure was gradually applied to the injected hindpaw of the rat (tibio tarsial articulation) and pain reaction thresholds were determined as the pressure (g) required to elicit struggle or vocalization.
Results were expressed as pressure (g) which induces pain reaction (mean+/−SEM). The cut-off value corresponds to the maximum pressure that the apparatus allows (750 g). Data were analyzed by a two-way analysis of variance (ANOVA) to compare time-course scores. These analyses were followed by a Tukey test when the F-value was significant. The significance level was p<0.05.

[1] = Solubility of test articles in the dosing vehicle (Example 3); conditions: at 10 mg/kg (2 mL/kg, NaCl 0.9%/DMSO 50/50)
[2] = test system: ipsilateral hindpaw volume of FCA-rats; assay: Paw volume measurement in FCA-rats (water displacement); assay type: in vivo, rat; conditions: 3 h post-dosing, single bolus doses tested
Method: Paw volume was assessed using displacement of water by the hindpaw to indicate the paw volume. These measurements were undertaken for both the ipsilateral and contralateral hindpaws prior to and 5 days after i.pl. FCA administration and prior to and 3 h post-dosing.

[3] = test system: ipsilateral (inflamed) hindpaw of FCA-rats; assay: Paw Pressure Test (PPT) in FCA-rats (Example 2), anti-hyperalgesia in ipsilateral hindpaw
[4] = test system: contralateral (non-inflamed) hindpaw of FCA-rats; assay: Paw Pressure Test (PPT) in FCA-rats (Example 2), antinociception in contralateral hindpaw; conditions: 0.5 mg/kg s.c.; did not reach statistical significance (p>0.05)
FCA-rats = assay: Behavioural observations in FCA-rats; assay type: in vivo, rat; conditions: single bolus: EMA500 1-100 mg/kg i.p., EMA600 1-30 mg/kg i.p., morphine 0.5 mg/kg
Source text: The animals were monitored for visible and audible signs of distress throughout the testing period. The visible signs of distress included behavioural changes such as complete immobility, movement with abnormal gait, agitation, aggression, wet dog shakes, excessive grooming, restlessness with constant movement, repeated sudden movements or staring.

[5] = test system: ipsilateral (inflamed) hindpaw of the FCA-rat model of inflammatory pain; assay: Paw Pressure Test, FCA-rat model of inflammatory pain (Example 1), ipsilateral hindpaw; assay type: in vivo; conditions: single i.p. bolus doses ~7-70 mg/kg (estimated doses)
Method: Single bolus doses of PD-123,319 were administered by the i.p. route to rats with FCA-induced unilateral hindpaw inflammation, a rat model of inflammatory pain. Anti-hyperalgesic (pain-relieving) efficacy was assessed using the Paw Pressure Test, a test which involves the application of noxious pressure to the inflamed hindpaw.
Following i.pl. […] The ability of single bolus doses of PD-123,319 (˜7-70 mg/kg) or vehicle to alleviate mechanical hyperalgesia in the ipsilateral (inflamed) hindpaw was assessed using the Paw Pressure Test (PPT).

COc1ccc2c(c1OCc1ccccc1)CC(C(=O)O)N(C(=O)C(c1ccccc1)c1ccccc1)C2 (single isomer, unassigned; (+)) [EMA400, (+)-2-(Diphenylacetyl)-1,2,3,4 tetrahydro-6-methoxy-5-(phenylmethoxy)-3-isoquinoline carboxylic acid]
antihyperalgesic effect (monoarthritic rats; 1 mg/kg i.p., 15 minutes after the injection): +20% | antihyperalgesic effect (monoarthritic rats; 10 mg/kg i.p., 15 minutes after the injection): +40% | antihyperalgesic effect (monoarthritic rats; 10 mg/kg i.p., 30 minutes after the injection): significant antihyperalgesic effect | antihyperalgesic effect in model of monoarthritis (overall) (monoarthritic rats): induce antihyperalgesic effects | solubility issues [1]: Solubility issues were observed

COc1ccc(Cn2cnc3c2CC(C(=O)O)N(C(=O)C(c2ccccc2)c2ccccc2)C3)cc1C (stereo not drawn) [EMA300, 1-(3-methyl-4-methoxyphenyl)-methyl-5-diphenylacetyl-4,5,6,7-tetrahydro-1H-imidazo[4,5-c]pyridine-6-carboxylic acid]
antihyperalgesic effect (monoarthritic rats; 0.1 mg/kg i.p., 15 and 30 minutes after drug injection): +6% | antihyperalgesic effect (monoarthritic rats; 1 mg/kg i.p., 15 and 30 minutes after drug injection): +22% | antihyperalgesic effect (monoarthritic rats; 10 mg/kg i.p., 15 and 30 minutes after drug injection): +56% | antihyperalgesic effect in model of monoarthritis (overall) (monoarthritic rats): dose-dependent antihyperalgesic effect; also recorded: induce antihyperalgesic effects

CN1CC[C@]23c4c5ccc(O)c4O[C@H]2[C@@H](O)C=C[C@H]3[C@H]1C5 [morphine]
effect on ipsilateral hindpaw volume [2]: did not alter ipsilateral hindpaw volumes; also recorded: unaffected | duration of action (anti-hyperalgesic response) ([3]; 0.5 mg/kg s.c. single bolus): 2 to 3 h | time of peak anti-hyperalgesic response ([3]; 0.5 mg/kg s.c. single bolus, post-dosing): 0.5 h | reversal of FCA-induced mechanical hyperalgesia ([3]; 0.5 mg/kg s.c., 0.5 h post-dosing): fully reversed FCA-induced mechanical hyperalgesia | mean (±SEM) PPT at the time of peak effect, ipsilateral hindpaw ([3]; 0.5 mg/kg s.c., 0.5 h post-dosing, pre-dosing 63.7 (±2.5) g): 115.0 (±10.6) g | antinociceptive effect (vocalization threshold) (monoarthritic rats; morphine 5 mg/kg i.p., compared to pre-induction values): significant increase in the vocalization threshold | antinociceptive effect in the contralateral hindpaw [4]: small antinociceptive effect | adverse behavioural effects (FCA-rats): did not produce adverse behavioural effects

Cc1cc(Cn2cnc3c2CC(C(=O)O)N(C(=O)C(c2ccccc2)c2ccccc2)C3)ccc1N(C)C (stereo not drawn) [PD-123,319, 1-(4-Dimethylamino-3-methylphenyl)methyl-5-diphenylacetyl-4,5,6,7-tetrahydro-1H-imidazo[4,5-c]-pyridine-6-carboxylic acid]
relief of mechanical hyperalgesia in the ipsilateral (inflamed) hindpaw [5]: dose-dependent relief of mechanical hyperalgesia
